Measurements reported in patent US20240285497A1, “METHOD FOR EVALUATING AN ABILITY OF A TEST SAMPLE TO TRIGGER A FOREIGN BODY REACTION IN THE SKIN, A METHOD FOR SCREENING A SUBSTANCE HAVING AN ABILITY TO INHIBIT A FOREIGN BODY REACTION IN THE SKIN, AND AN AGENT FOR INHIBITING A FOREIGN BODY REACTION IN THE SKIN” (priority 2021, published 2024).

What was measured:
Format in all cases: cell-based, human
artemin mRNA = test: Artemin mRNA expression in HaCaT cells contacted with FICZ, quantitative PCR; details: 24 hours; for expression level of artemin mRNA compared to cells without FICZ: no Fraglide-1
Method: First, HaCaT cells (CLI; Catalogue No.: 300493) were suspended in a DMEM medium at the density of 1×10^5 cell/mL, and 100 μL of the thus obtained suspension was added to each well of white 96 well plates (Thermo Fisher Scientific, MA, U.S.A.; Catalogue No.: 136102) so that the number of the cells in each well was 10,000 cells/well. In accordance with a conventional method, the cells were incubated at 37° C. for 24 hours in the presence of 5% CO2. Thereafter, the DMEM medium was removed, and 100 μL of a new DMEM medium containing FICZ at a predetermined concentration (i.e., 5 nM, 50 nM, 500 nM, and 5,000 nM) was added, followed by further incubation for 24 hours at 37° C. and 5% CO2. Meanwhile, negative controls were prepared by adding 100 μL of a DMEM medium containing no FICZ instead of the DMEM medium containing FICZ, which were also incubated for 24 hours at 37° C. and 5% CO2.
After the above-described incubation for 24 hours, total RNA was extracted and cDNA was prepared using a PCR kit “SuperPrep II Cell Lysis & RT Kit for qPCR” (Catalogue No.: SCQ-401) manufactured by Toyobo Co., Ltd. (Osaka, Japan) in accordance with a method described in the manual attached to the kit. Briefly, after the above-described incubation for 24 hours, cell culture medium was removed from each well and the cells were washed with PBS (Phosphate-buffered saline). Thereafter, each well was added with 10 μL of a lysis reagent, which was prepared by mixing 58.7 μL of “Lysis solution”, 0.3 μL of “gDNA Remover” and 1 μL of “RNase Inhibitor” attached to the above PCR kit. The cell culture plate was shaken for about 30 seconds, and allowed to stand at room temperature for 5 minutes, to obtain a cell lysate containing total RNA that can be used as a template for reverse transcription reaction. Herein, “Lysis Solution” was a cell lysis agent to lyse cells; “gDNA remover” was a reagent containing DNase I that degrades genome DNA; and “RNase Inhibitor” was a reagent to inhibit degradation of RNA by cellular components such as RNase, etc.
Next, cDNA was synthesized from the extracted RNA by reverse transcription. Firstly, a master mix for reverse transcription reaction was prepared by mixing 8 μL of “5×RT Master Mix” and 24 μL of “Nuclease-free water”, which were attached to the above PCR kit “SuperPrep II Cell Lysis & RT Kit for qPCR” manufactured by Toyobo Co., Ltd. (Osaka, Japan). Preparation of the master mix for reverse transcription reaction was carried out on ice. In a PCR tube, 32 μL of the obtained master mix was dispensed and then 8 μL of the above cell lysate present in each well was added to make a total volume 40 μL, which was used for the following reverse transcription reaction. The reverse transcription reaction was carried out under the conditions of 37° C. for 15 mins, 50° C. for 5 mins, and 98° C. for 5 mins. The thus obtained cDNA solution was added with 80 μL of sterile water and then frozen at −20° C. for storage.
(§1) Quantitative PCR was carried out by using THUNDERBIRD Next SYBR qPCR Mix (Toyobo Co., Ltd., Osaka, Japan; Catalogue No. QPX-201) and StepOne Real-Time PCR System (Thermo Fisher Scientific, MA, USA). […] The reaction solution was used for quantitative PCR. Based on Ct (cycle threshold) value obtained by quantitative PCR, an amount of mRNA of each target gene was obtained. […]

[1] = system: matrix metalloprotease 9 mRNA; test: MMP9 mRNA expression in HaCaT cells contacted with FICZ, quantitative PCR; details: 24 hours
Method: First, HaCaT cells (CLI; Catalogue No.: 300493) were suspended in a DMEM medium at the density of 1×10^5 cell/mL, and 100 μL of the thus obtained suspension was added to each well of white 96 well plates (Thermo Fisher Scientific, MA, U.S.A.; Catalogue No.: 136102) so that the number of the cells in each well was 10,000 cells/well. In accordance with a conventional method, the cells were incubated at 37° C. for 24 hours in the presence of 5% CO2. Thereafter, the DMEM medium was removed, and 100 μL of a new DMEM medium containing FICZ at a predetermined concentration (i.e., 5 nM, 50 nM, 500 nM, and 5,000 nM) was added, followed by further incubation for 24 hours at 37° C. and 5% CO2. Meanwhile, negative controls were prepared by adding 100 μL of a DMEM medium containing no FICZ instead of the DMEM medium containing FICZ, which were also incubated for 24 hours at 37° C. and 5% CO2. […]
as §1

[2] = system: xenobiotic responsive element (XRE); test: Screening: inhibition of FICZ-triggered reporter protein expression in XRE-NLuc::HaCaT cells; details: FICZ 5,000 nM, 24 hours
Method: First, in the same manner as in Experiment 1-2, XRE-NLuc::HaCaT cells were suspended in a DMEM medium at the density of 1×10^5 cell/mL, and 100 μL of the thus obtained suspension was added to each well of white 96-well plates (Thermo Fisher Scientific, MA, U.S.A.; Catalogue No.: 136102) so that a number of the cells in each well was 10,000 cells/well. In accordance with the conventional method, the cells were incubated for 24 hours at 37° C. and 5% CO2. Thereafter, the DMEM medium was removed, and 100 μL of a new DMEM medium containing […] of FICZ, which was confirmed to activate the expression of the reporter protein in Experiment 1-2, and a candidate substance at a predetermined concentration. Meanwhile, reference samples were also prepared by adding 100 μL of a DMEM medium containing 5,000 nM of FICZ but not containing candidate substances. In this experiment, 5-hydroxy-4-phenyl-2(5H)butenolide (hereinafter also referred to as “Fraglide-1” or “FG1”) and, as a positive control, cinnamaldehyde, which is known to have an effect of inhibiting a foreign body reaction in which a xenobiotic responsive element (XRE) is involved, were used as test substances. After incubation for 24 hours at 37° C. and 5% CO2, the expression level of the reporter protein (luminescence intensity) and the viable cell count were measured in accordance with the method described in Experiment 1-2, and the expression of the reporter protein per unit number of viable cells was obtained. The inhibition rate (Inhibition (%)) of the expression of the reporter protein exerted by each candidate substance was calculated in accordance with the following formula.
In the above formula, (Reporter Expression)FICZ indicates the expression of the reporter protein per unit number of viable cells obtained from the reference samples: i.e., the cells incubated in the medium containing 5,000 nM of FICZ but not containing candidate substances. Meanwhile, (Reporter Expression)FICZ+TEST SAMPLE indicates the expression of the reporter protein per unit number of viable cells obtained from the cells incubated in the medium containing 5,000 nM of FICZ and a candidate substance. The results shown in FIG. 6 were the mean obtained from three independent experiments. The error bars represent the standard error (SE).

| Molecule | expression level of artemin mRNA compared to cells without FICZ (artemin mRNA; HaCaT cells, 500 nM FICZ) | expression level of artemin mRNA compared to cells without FICZ (artemin mRNA; HaCaT cells, 5,000 nM FICZ) | concentration necessary to observe a significant increase in the expression level of artemin mRNA (artemin mRNA; HaCaT cells) | change in expression level of artemin mRNA (artemin mRNA; HaCaT cells, FICZ 50 nM or lower) | expression level of artemin mRNA, dependence on concentration (artemin mRNA; HaCaT cells, FICZ 5-5,000 nM) | concentration necessary to observe a significant increase in the expression level of MMP9 mRNA [1] | expression level of MMP9 mRNA, dependence on concentration ([1]; FICZ 5-5,000 nM) | Inhibition (%) of expression of the reporter protein triggered by FICZ ([2]; 12.5 μM test substance) | Inhibition (%) of expression of the reporter protein triggered by FICZ ([2]; 25 μM test substance) | Inhibition (%) of expression of the reporter protein triggered by FICZ ([2]; 50 μM test substance) |
| --- | --- | --- | --- | --- | --- | --- | --- | --- | --- | --- |
| 6-formylindolo[3,2-b] carbazole [FICZ] | about 3.0 fold | ~3.7 fold | at least 500 nM | no change was observed | increased along with the concentration of FICZ | about 5000 nM | increased along with the concentration of FICZ |  |  |  |
| O=C1C=C(c2ccccc2)C(O)O1 (stereo not shown) [Fraglide-1, 5-hydroxy-4-phenyl-2(5H)butenolide] |  |  |  |  |  |  |  | 58% | 68% | 83% |
